Assay results: patent US20070191460A1, “Use of Benzo-Heteroaryl Sulfamide Derivatives for the Treatment of Disease Modification / Epileptogenesis” (priority 2006, published 2007)

Tested on: amygdala kindled rat model of partial epilepsy
Assay: In Vivo, Amygdala Kindling Assay
Set-up: species or system Sprague-Dawley rats
Source text: The development of amygdala kindling is an established model of epileptogenesis. (Amano K, Hamada K, Yagi K, Seino M. Antiepileptic effects of topiramate on amygdaloid kindling in rats. Epilepsy Res. 1998 July;31(2):123-8; Barton M E, White H S. The effect of CGX-1007 and CI-1041, novel NMDA receptor antagonists, on kindling acquisition and expression. Epilepsy Res. 2004 March;59(1):1-12; Loscher W, Honack D, Rundfeldt C. Antiepileptogenic effects of the novel anticonvulsant levetiracetam (ucb L059)in the kindling model of temporal lobe epilepsy. J Pharmacol Exp Ther. 1998 February;284(2):474-9; McNamara J O. Analyses of the molecular basis of kindling development. Psychiatry Clin Neurosci. 1995 June; 49(3):S175-8. Review.; Morimoto K, Katayama K, Inoue K, Sato K. Effects of competitive and noncompetitive NMDA receptor antagonists on kindling and LTP. Pharmacol Biochem Behav. 1991 December;40(4):893-9; Racine, R. J. 1972. Modification of seizure activity by electrical stimulation. II. Motor seizure. Electroencephalogr. Clin. Neurophysiol. 32, 281-294). The kindled rat model of partial epilepsy is an accepted model of epileptogenesis (McNamara J O. Analyses of the molecular basis of kindling development. Psychiatry Clin Neurosci. 1995 June;49(3):S175-8. Review.).
Briefly, the assay procedure was as follows. Adult male, Sprague-Dawley rats weighing between 250-300 g were obtained from Charles River, Wilmington, Mass. were used for experimental procedures. All animals were housed on a 12:12 light dark cycle and permitted free access to both food (Prolab RMH 3000) and water except when removed from the home cage for experimental procedures. Animals were cared for in a matter consistent with the recommendations detailed in the National Research Council Publication, “Guide for the Care and Use of Laboratory Animals” in a temperature controlled, pesticide-free facility. Kindling stimulations were routinely performed between 9 AM-2 PM to avoid any circadian variations.
Compound #1 was triturated in a small volume of 0.5% methylcellulose, sonicated for 10 min, and brought to a final volume with 0.5% methylcellulose. The compound was administered systemically (i.p.) in a volume of 0.04 ml/10 g body weight and all tests were conducted at the pre-determined time of peak effect of 0.5 hours after i.p. administration.
The ability of Compound #1 to block the expression of amygdala kindled seizures was determined. For this study, rats were anaesthetized with a ketamine (120 mg/kg, i.p.) and xylazine (12 mg/kg, i.p.) cocktail. […]
Amygdala kindling was then performed according to the following protocol (Barton and White, 2004). […] The behavioral seizure score and AD duration was recorded for rats in each treatment group. […]

NS(=O)(=O)NCc1csc2ccccc12 [Compound #1, N-(benzo[b]thien-3-ylmethyl)-sulfamide]
behavioral seizure score (Racine scale) at the conclusion of the drug- and stimulus-free period (100 mg/kg i.p. 30 min before daily amygdala stimulation (200 μA, 2 s) for up to 13 days, re-challenged without drug after one-week stimulus- and drug-free period, n=10 rats, vehicle=4.6±0.24): 0.1±0.11 | after-discharge (AD) duration over the kindling acquisition phase, versus vehicle (100 mg/kg i.p., daily stimulation, days 1-13, progressive increase in both groups): No statistical difference | acquisition of the full generalized kindled seizure (100 mg/kg i.p., rats, kindling acquisition): prevented the acquisition of the full generalized kindled seizure | delay of the acquisition of kindling (stimulated in the absence of drug after the drug-free week, seizure score rose parallel to vehicle-treated rats): delayed the acquisition of kindling by several days
